Results on two molecules are retold here after publication PMC12317126 (Nature Communications, 2025).

In test [1] the target is T1, cystic fibrosis transmembrane conductance regulator (CFTR) (Homo sapiens, UniProt P13569).
T1 construct: WT human CFTR, PKA-phosphorylated
Put plainly: ATP hydrolysis of purified CFTR (kcat […] to […] per minute at […]); inside-out patch-clamp. It is filed as biochemical. (Patch clamp records ionic current or voltage across a cell membrane.)

The target in test [2] is T2, cystic fibrosis transmembrane conductance regulator (CFTR) (Homo sapiens, UniProt P13569, W401A).
T2 construct: C-terminally GFP-fused CFTR in CHO-K1 cells
Put plainly: inside-out patch-clamp, inhibition kinetics at […]. Type of test: cell-based.

T1 sequence (P13569 whole entry): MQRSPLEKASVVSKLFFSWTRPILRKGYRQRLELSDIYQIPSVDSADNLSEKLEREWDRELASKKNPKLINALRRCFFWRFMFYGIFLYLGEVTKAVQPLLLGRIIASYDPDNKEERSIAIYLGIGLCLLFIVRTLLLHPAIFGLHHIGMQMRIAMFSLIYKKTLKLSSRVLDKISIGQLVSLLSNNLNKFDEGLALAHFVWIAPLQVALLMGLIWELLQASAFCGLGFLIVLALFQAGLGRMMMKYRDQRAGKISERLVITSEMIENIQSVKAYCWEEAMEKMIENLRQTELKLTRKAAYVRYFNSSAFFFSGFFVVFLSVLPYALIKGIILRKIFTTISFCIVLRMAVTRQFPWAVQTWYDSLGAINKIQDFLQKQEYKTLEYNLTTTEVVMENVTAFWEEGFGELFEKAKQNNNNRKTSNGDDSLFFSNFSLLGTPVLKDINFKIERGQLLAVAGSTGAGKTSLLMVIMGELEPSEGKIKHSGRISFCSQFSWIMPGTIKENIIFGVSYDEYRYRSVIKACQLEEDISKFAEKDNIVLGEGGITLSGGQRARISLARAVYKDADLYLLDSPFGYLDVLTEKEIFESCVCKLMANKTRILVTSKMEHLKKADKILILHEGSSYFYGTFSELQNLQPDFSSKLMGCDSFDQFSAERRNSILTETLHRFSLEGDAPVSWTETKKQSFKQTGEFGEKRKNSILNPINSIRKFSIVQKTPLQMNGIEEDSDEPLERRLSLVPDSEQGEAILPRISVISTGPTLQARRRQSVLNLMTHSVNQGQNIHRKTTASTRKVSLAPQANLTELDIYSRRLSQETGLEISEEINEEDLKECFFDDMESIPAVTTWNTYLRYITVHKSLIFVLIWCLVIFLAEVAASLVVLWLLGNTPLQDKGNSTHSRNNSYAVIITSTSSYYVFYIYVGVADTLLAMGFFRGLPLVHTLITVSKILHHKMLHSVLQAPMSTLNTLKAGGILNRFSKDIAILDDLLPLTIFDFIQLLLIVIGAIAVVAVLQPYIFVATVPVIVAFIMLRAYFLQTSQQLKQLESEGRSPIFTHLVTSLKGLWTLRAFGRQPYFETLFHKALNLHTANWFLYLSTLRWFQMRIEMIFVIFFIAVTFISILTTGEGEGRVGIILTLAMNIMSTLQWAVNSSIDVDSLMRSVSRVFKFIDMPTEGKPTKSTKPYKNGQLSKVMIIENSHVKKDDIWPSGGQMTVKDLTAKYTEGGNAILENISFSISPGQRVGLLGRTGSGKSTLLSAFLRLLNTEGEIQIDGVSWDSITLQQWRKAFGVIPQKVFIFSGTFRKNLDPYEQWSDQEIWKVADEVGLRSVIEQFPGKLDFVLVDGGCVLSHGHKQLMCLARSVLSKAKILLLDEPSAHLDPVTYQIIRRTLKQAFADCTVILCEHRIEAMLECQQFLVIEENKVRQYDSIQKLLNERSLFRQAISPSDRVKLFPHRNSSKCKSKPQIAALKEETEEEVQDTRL
T2 sequence (P13569 whole entry W401A, the tested form may be a part): as the sequence (P13569 whole entry) above, with W401A counted along it

By inhibition is commonly meant the share of the control response that was lost under treatment. Read a high inhibition as a strong effect. The molecule `O=C(O)c1ccc(/C=C2\SC(=S)N(c3cccc(C(F)(F)F)c3)C2=O)cc1` [CFTRinh-172] came in with an inhibition at 10 µM in test [1] of 72%.
Turning to `Cn1c(=O)c2c(-c3ccccc3)n3c(c2n(C)c1=O)[C@H](c1ccc(Br)o1)Oc1ccc(C(=O)O)cc1-3` [(R)-BPO-27], the “inside-out patch-clamp, inhibition kinetics at 10 μM” value in test [2] is given as 4.5 ± 0.8 s (t1/2 of inhibition at 10 µM).
